Measurements from patent US20100041089A1, “IMPROVED METHOD FOR DETECTING CHEMICAL […]” (priority 2006, published 2010).

System: yeast genes (expressed mRNA)
Experiment: DNA chip measurement of expressed mRNA of yeast genes after culture with a toxic chemical substance
Assay type: cell-based, Saccharomyces cerevisiae S288C
Details: for level of expressed mRNA in the presence of chemical substance / level in the absence of chemical substance: cultured two hours with the chemical substance; for The level of expressed mRNA in the presence of chemical substance/The level of expressed mRNA in the absence of chemical substance: cultured two hours with substance
Description: Yeast (Saccharomyces cerevisiae S288C (a SUC2mal mel gap2 CUP1)) were cultured at 25° C. on YPD medium (yeast extract 1%, polypeptone 2%, glucose 2%). One of toxic chemical substances was added to the cell at logarithmic growth phase, and the cell was further cultured for two hours. Cell was cultured without any chemical substance in the same condition, and was used as a control. Concentrations of the chemical substances were defined to inhibit the growth of the yeast but not lead to death.
After the completion of cultivation, the culture was centrifuged to collect the cells. To the cells, sodium acetate buffer (50 mM sodium acetate, 10 mM EDTA, 1% SDS) was added, and the mixture was shaken at 65° C. for five minutes, followed by returning to room temperature, and obtaining the supernatant, which procedure was repeated two times. To the supernatant, ½ amount of a solution of phenol/chloroform (1:1) was added, and the mixture was centrifuged to give a supernatant, an equal amount of chloroform was added, and the mixture was centrifuged to give a supernatant. To the supernatant, an equal amount of isopropanol containing 0.3 M sodium acetate was added, and the mixture was allowed to stand at room temperature for 30 minutes, after which the mixture was centrifuged to give sediment of the whole RNAs. Seventy % ethanol was added to the sediment, and the mixture was again centrifuged to give sediment, which was then dried and dissolved in water. mRNA was isolated from the whole RNAs as followings. In view of the fact that a poly A chain is attached to the 3′ terminus of mRNA, a polynucleotide having a poly T structure which was immobilized on the surface of latex beads was used to trap the mRNA, and then the mRNA was washed and eluted with spine column (Oligotex-dT30<Super>mRNA Purification Kit, Takara). Reverse transcription of the mRNA was conducted with a reverse transcriptase (Super Script II Reverse Transcriptase; catalogue No. 18064-014, GibcoBRL) using fluorescence-labeled nucleotides to give cDNAs that were introduced with Cy3-dUTP or Cy5-dUTP during the reverse transcription.
The labeled cDNAs were dissolved in TE buffer (10 mM Tris-HCl/1 mM EDTA, pH 8.0), and the solution was dropped on the DNA chip containing the whole genes of yeast (DNA Chip Research Inc. Japan) so that the cDNAs were hybridized on the DNA chip at 65° C. for over 12 hours. The fluoresces intensity of the DNA chip was read with a scanner, and the ratio relative to the fluorescence intensity resulting from the absence of chemical substance was estimated as the following, which is shown in Tables 1 to 9.
In the Tables, “Intensity” indicated in the rightmost column is a value of the level of expressed mRNA of each gene in control cells as divided by the average level of the expressions of the whole genes. A gene of which mRNA level is lower in control, and is higher in cases of addition of chemical substance, is especially useful in the detection of toxic substances.
Here, when a ratio of an amount of mRNA expressed in the presence of the chemical substance to an amount of mRNA expressed in the absence of the chemical substance is two or more, then it is considered significant.

Cl[C@H]1[C@H](Cl)[C@@H](Cl)[C@@H](Cl)[C@H](Cl)[C@H]1Cl [(7), γ-Hexachlorocyclohexane]
level of expressed mRNA in the presence of chemical substance / level in the absence of chemical substance (yeast gene YDR133C): 0.2
level of expressed mRNA in the presence of chemical substance / level in the absence of chemical substance (yeast gene YDR250C): 1.0
level of expressed mRNA in the presence of chemical substance / level in the absence of chemical substance (yeast gene YDR278C): 0.7
level of expressed mRNA in the presence of chemical substance / level in the absence of chemical substance (yeast gene YDR281C): 0.6
The level of expressed mRNA in the presence of chemical substance/The level of expressed mRNA in the absence of chemical substance (yeast gene YDR330W): 1.3
level of expressed mRNA in the presence of chemical substance / level in the absence of chemical substance (yeast gene YDR366C): 1.5
The level of expressed mRNA in the presence of chemical substance/The level of expressed mRNA in the absence of chemical substance (yeast gene YDR411C): 2.0
The level of expressed mRNA in the presence of chemical substance/The level of expressed mRNA in the absence of chemical substance (yeast gene YDR511W): 1.5
The level of expressed mRNA in the presence of chemical substance/The level of expressed mRNA in the absence of chemical substance (yeast gene YDR545W): 1.2
The level of expressed mRNA in the presence of chemical substance/The level of expressed mRNA in the absence of chemical substance (yeast gene YEL001C): 1.1
The level of expressed mRNA in the presence of chemical substance/The level of expressed mRNA in the absence of chemical substance (yeast gene YER004W): 1.4
The level of expressed mRNA in the presence of chemical substance/The level of expressed mRNA in the absence of chemical substance (yeast gene YER035W): 1.9
The level of expressed mRNA in the presence of chemical substance/The level of expressed mRNA in the absence of chemical substance (yeast gene YER079W): 1.9
The level of expressed mRNA in the presence of chemical substance/The level of expressed mRNA in the absence of chemical substance (yeast gene YER106W): 1.0
The level of expressed mRNA in the presence of chemical substance/The level of expressed mRNA in the absence of chemical substance (yeast gene YER158C): 1.2
The level of expressed mRNA in the presence of chemical substance/The level of expressed mRNA in the absence of chemical substance (yeast gene YER163C): 1.5
The level of expressed mRNA in the presence of chemical substance/The level of expressed mRNA in the absence of chemical substance (yeast gene YER175C): 2.3
The level of expressed mRNA in the presence of chemical substance/The level of expressed mRNA in the absence of chemical substance (yeast gene YFL006W): 1.0
The level of expressed mRNA in the presence of chemical substance/The level of expressed mRNA in the absence of chemical substance (yeast gene YFL010C): 1.5
The level of expressed mRNA in the presence of chemical substance/The level of expressed mRNA in the absence of chemical substance (yeast gene YFL024C): 3.3
The level of expressed mRNA in the presence of chemical substance/The level of expressed mRNA in the absence of chemical substance (yeast gene YFL032W): 1.1
level of expressed mRNA in the presence of chemical substance / level in the absence of chemical substance (yeast gene YFR026C): 1.3
The level of expressed mRNA in the presence of chemical substance/The level of expressed mRNA in the absence of chemical substance (yeast gene YGL037C): 2.9
The level of expressed mRNA in the presence of chemical substance/The level of expressed mRNA in the absence of chemical substance (yeast gene YGL047W): 1.7
The level of expressed mRNA in the presence of chemical substance/The level of expressed mRNA in the absence of chemical substance (yeast gene YGL053W): 3.7
level of expressed mRNA in the presence of chemical substance / level in the absence of chemical substance (yeast gene YGL088W): 1.0
The level of expressed mRNA in the presence of chemical substance/The level of expressed mRNA in the absence of chemical substance (yeast gene YGL121C): 4.7
The level of expressed mRNA in the presence of chemical substance/The level of expressed mRNA in the absence of chemical substance (yeast gene YGL199C): 1.3
level of expressed mRNA in the presence of chemical substance / level in the absence of chemical substance (yeast gene YGR038W): 1.1
The level of expressed mRNA in the presence of chemical substance/The level of expressed mRNA in the absence of chemical substance (yeast gene YGR101W): 1.5
The level of expressed mRNA in the presence of chemical substance/The level of expressed mRNA in the absence of chemical substance (yeast gene YGR110W): 1.7
The level of expressed mRNA in the presence of chemical substance/The level of expressed mRNA in the absence of chemical substance (yeast gene YGR130C): 1.3
level of expressed mRNA in the presence of chemical substance / level in the absence of chemical substance (yeast gene YGR139W): 0.8
The level of expressed mRNA in the presence of chemical substance/The level of expressed mRNA in the absence of chemical substance (yeast gene YGR154C): 2.0
The level of expressed mRNA in the presence of chemical substance/The level of expressed mRNA in the absence of chemical substance (yeast gene YGR221C): 1.2
level of expressed mRNA in the presence of chemical substance / level in the absence of chemical substance (yeast gene YGR243W): 1.9
level of expressed mRNA in the presence of chemical substance / level in the absence of chemical substance (yeast gene YGR293C): 1.3
level of expressed mRNA in the presence of chemical substance / level in the absence of chemical substance (yeast gene YHL006C): 1.2
level of expressed mRNA in the presence of chemical substance / level in the absence of chemical substance (yeast gene YHR095W): 0.8
level of expressed mRNA in the presence of chemical substance / level in the absence of chemical substance (yeast gene YHR105W): 0.9
The level of expressed mRNA in the presence of chemical substance/The level of expressed mRNA in the absence of chemical substance (yeast gene YHR138C): 3.0
level of expressed mRNA in the presence of chemical substance / level in the absence of chemical substance (yeast gene YHR181W): 0.8
The level of expressed mRNA in the presence of chemical substance/The level of expressed mRNA in the absence of chemical substance (yeast gene YHR199C): 1.1
The level of expressed mRNA in the presence of chemical substance/The level of expressed mRNA in the absence of chemical substance (yeast gene YIL023C): 1.2
The level of expressed mRNA in the presence of chemical substance/The level of expressed mRNA in the absence of chemical substance (yeast gene YIL041W): 0.8
The level of expressed mRNA in the presence of chemical substance/The level of expressed mRNA in the absence of chemical substance (yeast gene YIL087C): 1.8
level of expressed mRNA in the presence of chemical substance / level in the absence of chemical substance (yeast gene YIL127C): 0.6
level of expressed mRNA in the presence of chemical substance / level in the absence of chemical substance (yeast gene YJL017W): 0.2
level of expressed mRNA in the presence of chemical substance / level in the absence of chemical substance (yeast gene YJL037W): 1.2
The level of expressed mRNA in the presence of chemical substance/The level of expressed mRNA in the absence of chemical substance (yeast gene YJL057C): 2.7
The level of expressed mRNA in the presence of chemical substance/The level of expressed mRNA in the absence of chemical substance (yeast gene YJL066C): 1.6
The level of expressed mRNA in the presence of chemical substance/The level of expressed mRNA in the absence of chemical substance (yeast gene YJL082W): 0.4
level of expressed mRNA in the presence of chemical substance / level in the absence of chemical substance (yeast gene YJL097W): 1.0
